In ChEMBL document CHEMBL1817607, “Synthesis and antiplasmodial activity of bicyclic dioxanes as simplified dihydroplakortin analogues” (J Med Chem, 2011):

Assays:
Plasmodium falciparum [1] = assay: Antiplasmodial activity against chloroquine-resistant Plasmodium falciparum W2 infected in human type A-positive RBC assessed as inhibition of parasite LDH activity after 72 hrs by spectrophotometric analysis; assay type: functional, organism-based; conditions: W2, 72 h
Plasmodium falciparum [2] = assay: Antiplasmodial activity against chloroquine-sensitive Plasmodium falciparum D10 infected in human type A-positive RBC assessed as inhibition of parasite LDH activity after 72 hrs by spectrophotometrically; assay type: functional, organism-based; conditions: D10, 72 h

SMILES	IC50 (Plasmodium falciparum [1]) [µM]	IC50 (Plasmodium falciparum [2]) [µM]
CCC(CC)C[C@@]1(C)C[C@@H](CC)[C@@H](CC(=O)OC)OO1	0.64	0.89
CCC(CC)C[C@]1(C)C[C@@H](CC)[C@@H](CC(=O)OC)OO1	0.87	2.4
CCC(CC)C[C@@]1(C)C[C@@H](CC)[C@@H]([C@H](O)CO)OO1	0.84	1.2
CCC(CC)C[C@]1(C)C[C@@H](CC)[C@@H]([C@H](O)CO)OO1	1.3	2.4
CC[C@@H]1CC(C)(C)OO[C@@H]1[C@H](O)CO	> 10	> 10
CC[C@@H]1CC(C)(C)OO[C@@H]1[C@H](O)COC(C)=O	> 10	> 10
CCCCC1(C)C[C@]2(C)CCO[C@@H]2OO1 (mixture of isomers)	1.4	2.9
CCCCCC1(C)C[C@]2(C)CCO[C@@H]2OO1 (mixture of isomers)	1.5	2.9
CCC(CC)CC1(C)C[C@]2(C)CCO[C@@H]2OO1 (mixture of isomers)	0.39	0.76
CC1(CC2CCCC2)C[C@]2(C)CCO[C@@H]2OO1 (mixture of isomers)	0.34	0.55
CC1(CC2CCCCC2)C[C@]2(C)CCO[C@@H]2OO1 (mixture of isomers)	0.36	0.49
CC1(CC2C3CC4CC(C3)CC2C4)C[C@]2(C)CCO[C@@H]2OO1 (mixture of isomers)	0.15	0.23
CCCCC1(C)C[C@@H]2CCO[C@@H]2OO1 (mixture of isomers)	> 10	> 10
CCCCCC1(C)C[C@@H]2CCO[C@@H]2OO1 (mixture of isomers)	> 10	> 10
CCC(CC)CC1(C)C[C@@H]2CCO[C@@H]2OO1 (mixture of isomers)	8.6	> 10
CC(C)c1ccccc1[C@H]1C[C@]2(C)CCO[C@@H]2OO1 (racemic)	4.6	8.3
CC1(C)C[C@]2(C)CCO[C@@H]2OO1 (racemic)	> 10	> 10
CC[C@@]12CCO[C@@H]1OOC(C)(C)C2 (racemic)	> 10	> 10
CC(C)C[C@@]12CCO[C@@H]1OOC(C)(C)C2 (racemic)	> 10	> 10
C[C@@]12CCO[C@@H]1OO[C@@H](c1ccccc1)C2 (racemic)	> 20	> 20
Cc1ccccc1[C@H]1C[C@]2(C)CCO[C@@H]2OO1 (racemic)	11	> 20
CCc1ccccc1[C@H]1C[C@]2(C)CCO[C@@H]2OO1 (racemic)	7.7	15
CC(C)Cc1ccccc1[C@H]1C[C@]2(C)CCO[C@@H]2OO1 (racemic)	5.7	13
C[C@@]12CCO[C@@H]1OO[C@H](c1ccccc1)C2 (racemic)	> 20	> 20
Cc1ccccc1[C@@H]1C[C@]2(C)CCO[C@@H]2OO1 (racemic)	> 20	> 20
CCc1ccccc1[C@@H]1C[C@]2(C)CCO[C@@H]2OO1 (racemic)	> 20	> 20
CC1(C)C[C@@H]2CCO[C@@H]2OO1 (relative stereo)	> 10	> 10
